For series [1], the system named is HeLa cells. Description: Mitochondrial membrane potential (JC-1). The settings on record: JC-1 dye. It counts as cell-based. The protocol: Mitochondrial membrane potential (MMP) changes were spectrophotometrically detected. MMP was measured in a fluorometry device (Spectramax M5, BioTek, VT, USA) at wavelengths of 490 nm (excitation) and 530 nm (emission) in suitable conditions according to the manufacturer protocol (Sigma-Aldrich-CS0390, Germany).

In series [2] the test system is HeLa cells. Description: Intracellular ROS detection (ROS Deep Red). The series is classed as cell-based. The settings on record: ROS red dye, 0–200 μM, 1 h. Here is the method:
Intracellular free radicals were measured using the Cellular Reactive Oxygen Species Detection Assay commercial kit (Abcam-186027, Cambridge, UK). In this kit, a fluorescence probe that is permeable to cells was used. When the probe reacts with ROS, it produces red fluorescence. According to the kit protocol, the cells were planted in black plates and incubated for 24 h. The compound E in PBS was administered at doses of 0–200 μM and incubated at 37 °C within an atmosphere of 5 % CO2 for 1 h (protected from light). After the compound E was poured out, the wells were filled with 100 µL of ROS Deep Red Working Solution, and then they were incubated at 37°C under an atmosphere of 5 % CO2 for 1 h. A fluorometry device (Spectramax M5, BioTek, VT, USA) Ex/Em: 650/675 nm (cut off: 665 nm) was used for the measuring.

The target of the next series is hCAIX. Also on record: method as in PMID 25913118, PMID 26803577. To be noted: stopped-flow CO2 hydration assay; cited from earlier work.
Series [3] concerns HeLa cells. Put plainly: Western blot of apoptotic proteins and CAIX. The settings on record: 24 h. It counts as cell-based. The protocol:
The cells were seeded on 6 cm^2 cell culture dishes and treated with the compound E at doses of 10–25–50 μM, for 24 h. The cells were then washed by cold PBS, which was followed by lysis with RIPA lysis tampon (10 mM Tris-HC1 pH:8.1 mM EDTA, 1 mM EGTA, 140 mM NaCl, 1% TritonX-100, 0.1 SDS, 0.1% Sodium deoxycholate), 1X phosphates, and protease inhibitor (Santa Cruz, Heidelberg, Germany). Acquired supernatant was centrifuged at 12,000× g for 10 min and transferred to new tubes. Protein concentration was detected using the protein assay kit BCA (Thermo Fisher Scientific, MA, USA). Following protein (50 µg) standing in 10% SDS-PAGE gel at 50 V for 30 min and 80 V for 3 h, the proteins were blotted to PVDF membrane at 70 V for 5 min (Bio-Rad Turbo Transfer System). After blocking in 1X TBST (12.1 gr Tris, pH 7.5, 70 gr NaCl, %0.1 Tween-20) containing 5% dry milk or 5% BSA, the primer monoclonal antibodies shown in Table 3 were administrated to the membrane overnight, which was followed by washing with 1 X TBS-T and incubation period with secondary antibodies HRP rabbit or mouse (1/10.000) for 60 min. The membrane was washed with 1 X TBS-T again. For band imaging, ECL substrate (EMD Millipore Corp., MA, USA) was used in the imaging system (LI-COR Odyssey Fc, NE, USA).
Background: A western blot detects proteins with antibodies after separation by electrophoresis.

Series [4] relates to HeLa cells. Put plainly: BrdU ELISA proliferation assay. The series is classed as cell-based. The settings on record: 2.5 to 200 μM, 72 h. The protocol:
The effects of compound E on the proliferation of HeLa cells were investigated by a commercial proliferation kit BrDU (BioVision, CA, USA) according to the protocols of the manufacturer. Twenty-four hours later, the cells were planted in 96 well plates (10^4 cell/mL), the medium was replaced, and the substance was administrated at a range from 2.5 to 200 μM for 72 h. Subsequently, the media were […], after which 100 µL 1X of BrdU reactive was added; then, they were placed in an incubator that contained % 5 CO2, 95% fresh air, at 37 °C, for 4 h. The medium was then removed, and 100 μL of fixative/denaturation solution was added and incubated for 30 min. A total of 100 µL 1X of the antibody solution BrdU was added, following 1-h incubation, the solution washed by 300 µL 1X of the washing solution two times. A volume of 100 μL 1X of anti-mouse HRP-linked antibody was added and incubated at room temperature for 1 h. Then, the cells were washed with 300 µL 1X of washing solution. Final incubation was performed by 100 μL of TMB substrate solution for 5 min, after which the stop solution was added; consequently, reading at a wavelength of 450 nm was performed.
A general note: Incorporation of labelled thymidine or its analogues reports DNA synthesis.

In series [5] the test system is HeLa cells. Description: WST-1 cytotoxicity assay, HeLa. The series is classed as cell-based. To be noted: Homo sapiens. The protocol:
We used cancer and normal cell lines purchased from ATCC (American Type Culture Collection) and ECACC (European Collection of Authenticated Cell Cultures) and stored in liquid nitrogen.
The cells were planted in 96 well plates (10^4 cells per well). […] WST-1 reactive of 10 µL was added in all wells. Following 4 h incubation, the measurements were carried out in a plate reader (Spectramax M5, BioTek, VT, USA) at wavelengths of 450 and 630 nm.
A general note: Tetrazolium dyes change colour on reduction, which living cells bring about.

What is called Ki is the equilibrium dissociation constant of an inhibitor or competing ligand from its target. Usually IC50 stands for the concentration that gives 50% inhibition. A higher IC50 goes with weaker potency. The term melting point denotes the temperature, or range, at which the solid turns liquid. `NS(=O)(=O)c1ccc(CCNCc2cc(Br)ccc2O)cc1` [Compound E, 4-(2-((5-bromo-2-hydroxybenzyl)amino)ethyl) benzenesulphonamide] came in with a melting point of 189 to 191 °C. Besides, in the series with HeLa cells [1], the “Mitochondrial membrane potential (MMP)” value is recorded as “disrupts mitochondrial membrane potential in HeLa cells”. Moreover, in the series on HeLa cells [2], the “Intracellular ROS level” value was “amount of ROS increased in a manner dose-dependent”. Further, at hCAIX, the Ki was 0.0043 µM. Also, the CAIX protein level entry in the series on HeLa cells [3] (25 µM) was “effective for inhibiton of CAIX protein”. For the same molecule, the “Cleaved PARP protein level” value in the series with HeLa cells [3] (10 and 25 µM, vs WT) is “increased PARP protein level”. Further, in the series on HeLa cells [3] (10–25–50 μM, vs WT), the “Cleaved caspase 3, 8, and 9 protein levels” value was “increased”; the “Pro-caspase 3 protein level” value was “decreased”. Moreover, in the series on HeLa cells [4], the “Proliferation of HeLa cells (BrdU ELISA)” value was “reduce the proliferation of HeLa cells in a dose-dependent manner”. In the series with HeLa cells [5] (24 h), the midpoint of inhibition, the IC50, lay at 46.4 ± 4.3 µM. Also, the midpoint of inhibition with HeLa cells [5] (48 h), the IC50, lay at 86.8 ± 2.3 µM. This molecule had an IC50 in the series on HeLa cells [5] (72 h) of 20.1 ± 4.2 µM.

Values taken from article PMC8201173, “Inhibition of Carbonic Anhydrase IX Promotes Apoptosis through Intracellular pH Level Alterations in Cervical Cancer Cells” (International Journal of Molecular Sciences, 2021).
